Test results: patent US20240124444A1 (Celgene Corporation, priority 2020, published 2024)

test system: C. parvum strain UGA1; test: C. parvum growth inhibition assay (Nluc luminescence in HCT-8 cells); assay type: cell-based, Cryptosporidium parvum; details: Cryptosporidium parvum, HCT-8, 48 h, C. parvum growth inhibition in HCT-8 cells, 48 hours, 6 concentrations 10-0.04 μM

`Cn1c(-c2cc(NCC(F)(F)F)ncn2)cc2cnc(NC3CCOCC3)cc21` [Example 365] and `Cn1c(-c2cc(C(F)(F)F)ncn2)cc2cnc(NC3CCOCC3)cc21` [Example 392, 1-methyl-N-(tetrahydro-2H-pyran-4-yl)-2-(6-(trifluoromethyl)pyrimidin-4-yl)-1H-pyrrolo[3,2-c]pyridin-6-amine] cannot be ordered by EC50: greater than 1 µM for the first, greater than 1 µM for the second.

`Cc1cc(-c2[nH]c3cc(NC4CCCCC4)ncc3c2C)ccn1` [Example 369, N-cyclohexyl-3-methyl-2-(2-methylpyridin-4-yl)-1H-pyrrolo[3,2-c]pyridin-6-amine] and `Cc1cc(-c2[nH]c3cc(NC4CCOCC4)ncc3c2C(F)(F)F)ccn1` [Example 375, 2-(2-methylpyridin-4-yl)-N-(tetrahydro-2H-pyran-4-yl)-3-(trifluoromethyl)-1H-pyrrolo[3,2-c]pyridin-6-amine] cannot be ordered by EC50: greater than 1 µM for the first, greater than 1 µM for the second.

Compared with `CN(CC(F)(F)F)c1nccc(-c2cc3cnc(NC4CCOCC4)cc3[nH]2)n1` [Example 370, 2-(2-(methyl(2,2,2-trifluoroethyl)amino)pyrimidin-4-yl)-N-(tetrahydro-2H-pyran-4-yl)-1H-pyrrolo[3,2-c]pyridin-6-amine], `CN(CC(F)(F)F)c1cc(-c2cc3cnc(NC4CCOCC4)cc3[nH]2)ccn1` [Example 381, 2-(2-(methyl(2,2,2-trifluoroethyl)amino)pyridin-4-yl)-N-(tetrahydro-2H-pyran-4-yl)-1H-pyrrolo[3,2-c]pyridin-6-amine] is higher in EC50: 0.5 to 1 µM for the first, greater than 1 µM for the second.

Compared with `c1cc(-c2cc3cnc(NC4CCOCC4)cc3[nH]2)nc(N2CCCC2)n1` [Example 372, 2-(2-(pyrrolidin-1-yl)pyrimidin-4-yl)-N-(tetrahydro-2H-pyran-4-yl)-1H-pyrrolo[3,2-c]pyridin-6-amine], `CCOc1nccc(-c2cc3cnc(NC4CCOCC4)cc3[nH]2)n1` [Example 377, 2-(2-ethoxypyrimidin-4-yl)-N-(tetrahydro-2H-pyran-4-yl)-1H-pyrrolo[3,2-c]pyridin-6-amine] is higher in EC50: less than 0.5 µM for the first, greater than 1 µM for the second.

Compared with `FC(F)(F)CNc1nccc(-c2cc3cnc(NC4CCC4)cc3[nH]2)n1` [Example 373, N-cyclobutyl-2-(2-(2,2,2-trifluoroethylamino)pyrimidin-4-yl)-1H-pyrrolo[3,2-c]pyridin-6-amine], `FC(F)(F)COc1nccc(-c2cc3cnc(NC4CCOCC4)cc3[nH]2)n1` [Example 380, N-(tetrahydro-2H-pyran-4-yl)-2-(2-(2,2,2-trifluoroethoxy)pyrimidin-4-yl)-1H-pyrrolo[3,2-c]pyridin-6-amine] is higher in EC50: 0.5 to 1 µM for the first, greater than 1 µM for the second. The first is the more potent here.

`FC(F)(F)c1c[nH]c2cc(NC3CCOCC3)ncc12` [Example 376, N-(tetrahydro-2H-pyran-4-yl)-3-(trifluoromethyl)-1H-pyrrolo[3,2-c]pyridin-6-amine] and `FC(F)(F)CCc1nccc(-c2cc3cnc(NC4CCOCC4)cc3[nH]2)n1` [Example 385, N-(tetrahydro-2H-pyran-4-yl)-2-(2-(3,3,3-trifluoropropyl)pyrimidin-4-yl)-1H-pyrrolo[3,2-c]pyridin-6-amine] cannot be ordered by EC50: greater than 1 µM for the first, greater than 1 µM for the second.

`Cc1nccc(-c2cc3cnc(NC4CCOCC4)cc3n2C)n1` [Example 378, 1-methyl-2-(2-methylpyrimidin-4-yl)-N-(tetrahydro-2H-pyran-4-yl)-1H-pyrrolo[3,2-c]pyridin-6-amine] and `CCc1nccc(-c2cc3cnc(NC4CCOCC4)cc3n2C)n1` [Example 387, 2-(2-ethylpyrimidin-4-yl)-1-methyl-N-(tetrahydro-2H-pyran-4-yl)-1H-pyrrolo[3,2-c]pyridin-6-amine] cannot be ordered by EC50: greater than 1 µM for the first, greater than 1 µM for the second.

`Cn1c(-c2ccnc(NCC(F)(F)F)c2)cc2cnc(NC3CCOCC3)cc21` [Example 382, 1-methyl-N-(tetrahydro-2H-pyran-4-yl)-2-(2-(2,2,2-trifluoroethylamino)pyridin-4-yl)-1H-pyrrolo[3,2-c]pyridin-6-amine] and `Cn1c(-c2ccnc(C(F)(F)F)n2)cc2cnc(NC3CCOCC3)cc21` [Example 396, 1-methyl-N-(tetrahydro-2H-pyran-4-yl)-2-(2-(trifluoromethyl)pyrimidin-4-yl)-1H-pyrrolo[3,2-c]pyridin-6-amine] cannot be ordered by EC50: greater than 1 µM for the first, greater than 1 µM for the second.

`CC(C)Nc1cc2c(cn1)cc(-c1ccnc(NCC(F)(F)F)n1)n2C` [Example 383, N-isopropyl-1-methyl-2-(2-(2,2,2-trifluoroethylamino)pyrimidin-4-yl)-1H-pyrrolo[3,2-c]pyridin-6-amine] and `CNc1cc2c(cn1)cc(-c1ccnc(NCC(F)(F)F)n1)n2C` [Example 390, N,1-dimethyl-2-(2-(2,2,2-trifluoroethylamino)pyrimidin-4-yl)-1H-pyrrolo[3,2-c]pyridin-6-amine] cannot be ordered by EC50: greater than 1 µM for the first, greater than 1 µM for the second.

`Cn1c(-c2ccnc(NCC(F)(F)F)n2)cc2cnc(NC(C)(C)C)cc21` [Example 384, N-tert-butyl-1-methyl-2-(2-(2,2,2-trifluoroethylamino)pyrimidin-4-yl)-1H-pyrrolo[3,2-c]pyridin-6-amine] and `CC(C)c1nccc(-c2cc3cnc(NC4CCOCC4)cc3n2C)n1` [Example 391, 2-(2-isopropylpyrimidin-4-yl)-1-methyl-N-(tetrahydro-2H-pyran-4-yl)-1H-pyrrolo[3,2-c]pyridin-6-amine] cannot be ordered by EC50: greater than 1 µM for the first, greater than 1 µM for the second.

`COc1cc(-c2cc3cnc(NC4CCOCC4)cc3n2C)ncn1` [Example 388, 2-(6-methoxypyrimidin-4-yl)-1-methyl-N-(tetrahydro-2H-pyran-4-yl)-1H-pyrrolo[3,2-c]pyridin-6-amine] and `CCc1cc(-c2cc3cnc(NC4CCOCC4)cc3n2C)ncn1` [Example 389, 2-(6-ethylpyrimidin-4-yl)-1-methyl-N-(tetrahydro-2H-pyran-4-yl)-1H-pyrrolo[3,2-c]pyridin-6-amine] cannot be ordered by EC50: greater than 1 µM for the first, greater than 1 µM for the second.

`Cc1cc(-c2cc3cnc(NC4CCOCC4)cc3[nH]2)nc(C)n1` [Example 393, 2-(2,6-dimethylpyrimidin-4-yl)-N-(tetrahydro-2H-pyran-4-yl)-1H-pyrrolo[3,2-c]pyridin-6-amine] and `CN(CC(F)(F)F)c1cc(-c2cc3cnc(NC4CCOCC4)cc3[nH]2)ncn1` [Example 394, 2-(6-(methyl(2,2,2-trifluoroethyl)amino)pyrimidin-4-yl)-N-(tetrahydro-2H-pyran-4-yl)-1H-pyrrolo[3,2-c]pyridin-6-amine] cannot be ordered by EC50: greater than 1 µM for the first, greater than 1 µM for the second.

`CC(C)c1cc(-c2cc3cnc(NC4CCOCC4)cc3n2C)ncn1` [Example 395, 2-(6-isopropylpyrimidin-4-yl)-1-methyl-N-(tetrahydro-2H-pyran-4-yl)-1H-pyrrolo[3,2-c]pyridin-6-amine] gave an EC50 greater than 1 µM.

same assay, conditions: Cryptosporidium parvum, HCT-8; single point inhibition at 1 uM; read-out: % inh @ 1 uM C. parvum

`FC1(F)CC(c2cc3cnc(NC4CCOCC4)cc3[nH]2)C1` [Example 397, 2-(3,3-difluorocyclobutyl)-N-(tetrahydro-2H-pyran-4-yl)-1H-pyrrolo[3,2-c]pyridin-6-amine] showed an inhibition at 1 µM of 33 to 66%.

same assay, conditions: Cryptosporidium parvum, HCT-8; single point inhibition at 10 uM; read-out: % inh @ 10 uM C. parvum

`FC1(F)CC(c2cc3cnc(NC4CCOCC4)cc3[nH]2)C1` [Example 397, 2-(3,3-difluorocyclobutyl)-N-(tetrahydro-2H-pyran-4-yl)-1H-pyrrolo[3,2-c]pyridin-6-amine] showed an inhibition at 10 µM of 33 to 66%.
